The structures appear in SMILES notation. The source made the active and inactive calls. No cut-off for these calls is given here.

What all share (assay type): functional
Experiment [1] relates to Echinoidea. Briefly: (§1) Inhibition of cell division in fertilized sea urchin egg at 1 ppm.
The test system of experiment [2] is Echinoidea. Briefly: Inhibition of cell division in fertilized sea urchin egg at 3 ppm.
Experiment [3] in a line: as §1. As to conditions: Echinoidea.

In the case of `CC(=O)O[C@@H]1OC=C[C@]12C=C1C=C(C)CC[C@H]1C2(C)C`, in the experiment on Echinoidea [1], the result was Active.

In the case of `CC1=C[C@@H]2C[C@]3(C=COC3=O)C(C)(C)[C@@H]2CC1`, in the experiment with Echinoidea [2], the result was inactive.

For the compound `CC(=O)O[C@@H]1OC=C[C@]12CC1=C[C@@](C)(OO)CC[C@H]1C2(C)C`, in the experiment on Echinoidea [1], the result was Active.

As for `CC(=O)O[C@@H]1OC=C[C@]12Cc1cc(C)ccc1C2(C)C`, in the experiment on Echinoidea [1], the result was Active.

Consider `CC(=O)O[C@@H]1OC=C[C@]12CC1=C[C@](C)(OO)CC[C@H]1C2(C)C`, for which, in the experiment on Echinoidea [1], the outcome was Active.

As usually defined, the inhibition is the change of the read-out against control, counted positive when it falls. A high value points to a strong effect. For `CC(=O)O[C@@H]1OC=C[C@]12C[C@H]1C=C(C)CC[C@H]1C2(C)C` [SPIRODYSIN], in experiment [3], the inhibition at 1 ppm was 90%.

Values taken from ChEMBL document CHEMBL1142607, “Haterumadysins A-D, sesquiterpenes from the Okinawan marine sponge Dysidea chlorea” (2006).
